Assay results: paper PMC5517562, “Design and discovery of novel monastrol-1,3,5-triazines as potent anti-breast cancer agent via attenuating Epidermal Growth Factor Receptor tyrosine kinase” (Scientific Reports, 2017)

How the values were obtained:
[1] = target: T1, EGFR-TK (Homo sapiens, UniProt P00533); experiment: EGFR tyrosine kinase inhibitory activity (Kinase-Glo Plus luminescence); type: biochemical; settings: for inhibition at 10 µM: read-out: Percent of Inhibition, EGFR tyrosine kinase
T1 construct: 0.2 mg/mL Poly (Glu, Tyr) substrate, 10 mM ATP and EGFR
T1 sequence (P00533 25-1210): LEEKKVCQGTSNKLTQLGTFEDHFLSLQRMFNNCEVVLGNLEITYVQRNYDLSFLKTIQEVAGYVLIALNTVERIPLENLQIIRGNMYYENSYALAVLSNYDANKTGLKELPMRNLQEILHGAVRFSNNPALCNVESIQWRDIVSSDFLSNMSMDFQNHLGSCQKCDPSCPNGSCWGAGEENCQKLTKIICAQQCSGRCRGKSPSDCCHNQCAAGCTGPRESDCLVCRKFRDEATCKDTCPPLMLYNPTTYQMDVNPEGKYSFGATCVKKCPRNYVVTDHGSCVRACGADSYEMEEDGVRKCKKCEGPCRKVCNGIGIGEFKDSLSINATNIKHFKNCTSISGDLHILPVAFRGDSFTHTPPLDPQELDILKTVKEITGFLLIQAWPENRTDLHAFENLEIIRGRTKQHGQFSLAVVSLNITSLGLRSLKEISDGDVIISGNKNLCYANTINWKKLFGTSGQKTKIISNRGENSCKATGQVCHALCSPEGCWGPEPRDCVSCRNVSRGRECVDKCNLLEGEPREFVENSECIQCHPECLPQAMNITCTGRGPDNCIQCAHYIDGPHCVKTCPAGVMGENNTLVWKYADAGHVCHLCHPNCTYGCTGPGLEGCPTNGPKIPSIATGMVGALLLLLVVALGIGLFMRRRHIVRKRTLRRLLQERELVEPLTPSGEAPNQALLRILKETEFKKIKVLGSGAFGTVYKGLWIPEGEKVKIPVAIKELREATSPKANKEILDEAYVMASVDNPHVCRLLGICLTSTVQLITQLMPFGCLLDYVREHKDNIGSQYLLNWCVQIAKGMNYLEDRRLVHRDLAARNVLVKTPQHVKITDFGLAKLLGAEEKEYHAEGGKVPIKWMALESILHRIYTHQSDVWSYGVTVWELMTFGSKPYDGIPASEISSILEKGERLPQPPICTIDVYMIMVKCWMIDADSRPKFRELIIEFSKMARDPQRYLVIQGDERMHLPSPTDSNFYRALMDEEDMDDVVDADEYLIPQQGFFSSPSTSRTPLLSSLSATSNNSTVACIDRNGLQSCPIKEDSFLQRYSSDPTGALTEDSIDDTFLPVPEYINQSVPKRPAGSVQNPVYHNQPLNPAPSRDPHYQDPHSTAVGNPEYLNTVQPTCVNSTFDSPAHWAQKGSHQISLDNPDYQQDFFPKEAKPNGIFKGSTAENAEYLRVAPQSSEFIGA
Method: Kinase activity was determined using Kinase-Glo Plus luminescence kinase assay kit, by quantitating the amount of ATP remaining in the solution of kinase reaction. The luminescent signal is correlated with the residual amount present and it was inversely related with kinase activity. The tested compounds were diluted to 100 mM in 10% DMSO, then […] of the dilution was added to a 50 mL reaction. All of the enzymatic reactions were performed at 30 °C for 40 min, 50 mL of reaction mixture contains 10 mM MgCl2, 40 mM Tris, pH 7.4, 0.1 mg/mL BSA, 0.2 mg/mL Poly (Glu, Tyr) substrate, 10 mM ATP and EGFR. Incubate the plate for 5 min at r.t. then add 50 mL of Kinase-GloPlus Luminescence kinase assay to each reaction. ADP-Glo assay kit is the protein kinase assays used to determine IC50 values in which ADP generation was measured as it leads to an increase in luminescence signal. The reaction mixture was incubated in a 96-well plate at 30 °C for 30 min, after the incubation period add 25 mL of ADP-Glo reagent to terminate the assay. Shake the 96-well plate for 30 min at ambient temperature then incubate it, then add 50 mL of kinase detection reagent. Read the 96-well plate using the ADP-Glo Luminescence reader. All the assay components were added to the blank control except the substrate. By removing the blank control value you can obtain the corrected activity for each protein kinase target.

[2] = tested on: MCF 12A (normal epithelial breast cell line); experiment: MTT assay on normal cells, MCF 12A; type: cell-based, human; settings: normal epithelial breast cell MCF 12A; for IC50: Homo sapiens
Method: (§1) The synthesized compounds were evaluated for in-vitro cytotoxic activity against various cell lines such as HeLa (cervical cancer), MCF-7 (breast cancer), HL-60 (Human promyelocytic leukemia), HepG2 (Hepatocellular carcinoma) and MCF 12A (normal epithelial cell) by the MTT assay method. […] The relationship between surviving fraction and drug concentration was plotted to obtain the survival curve of all the cancer cell lines HeLa, MCF-7, HL-60 and HepG2. The response parameter calculated was the IC50 values, which responds to the concentration required for 50% inhibition of cell viability. The in-vitro cytotoxic activity of the synthesized compounds is summarized Table 3.
The presence of non-halogen substituent along with electron donating substituent seriously jeopardise the anticancer potential. […] To determine the selectivity of these molecules between normal and cancerous cells, the designed compounds were also tested against MCF 12A, a normal epithelial breast cell.
(§2) The target compounds were subjected to in vitro cytotoxicity bioassay. In vitro cytotoxicity was determined using a standard MTT assay with protocol appropriate for the individual test system[29]–[31]. The four human cancer cell lines HeLa, MCF-7, HL-60, HepG2 and MCF-12A were cultured in the MEM medium supplemented with 10% FBS, 1% glutamine and […] gentamicin sulfate in a CO2 incubator in a humidified atmosphere of 5% CO2 and 95% air. The test compounds were prepared prior to the experiment by dissolving in 0.1% DMSO and diluted with medium. The cells were then exposed to different concentrations of drugs ([…]) in the volume of […]. Cells in the control wells received the same volume of medium containing 0.1% DMSO. After 24 h, the medium was removed and cell cultures were incubated with […] MTT reagent (1 mg/ml) for 5 h at 37 °C. The known number of cells ([…]) was incubated in a 5% CO2 incubator at 37 °C in the presence of different concentrations of test compounds. After 48 h of drug incubation, the MTT solution was added in each well and absorbance was recorded at 540 nm by an ELISA reader. The experiment was performed in triplicate. Cell survival was calculated as the percentage of MTT inhibition as % growth inhibition = 100 − (mean OD of individual test Group/Mean OD of each Control Group) × 100.

[3] = tested on: HepG2 (Hepatocellular carcinoma); experiment: MTT in vitro cytotoxicity assay, HepG2; type: cell-based, human; settings: NA: Not active; for IC50: Homo sapiens
Method: as §1, §2

[4] = tested on: MCF-7 (breast cancer); experiment: MTT in vitro cytotoxicity assay, MCF-7; type: cell-based, human; settings: Homo sapiens, MCF7
Method: as §1, §2

[5] = tested on: HeLa (cervical cancer); experiment: MTT in vitro cytotoxicity assay, HeLa; type: cell-based, human; settings: Homo sapiens
Method: as §1, §2

[6] = tested on: HL-60 (Human promyelocytic leukemia); experiment: MTT in vitro cytotoxicity assay, HL-60; type: cell-based; settings: Homo sapiens
Method: as §1, §2

[7] = tested on: NCIH1975; parameters: method as in PMID 22227214; settings: read-out: IC50 antiproliferative activity NCIH1975; cited from earlier work
[8] = tested on: A549; parameters: method as in PMID 22227214; settings: read-out: IC50 antiproliferative activity A549; cited from earlier work
[9] = tested on: A431; parameters: method as in PMID 22227214; settings: read-out: IC50 antiproliferative activity A431; cited from earlier work
[10] = tested on: mutant EGFRT790M/L858R; parameters: method as in PMID 22227214; settings: cited from earlier work
[11] = tested on: WT EGFR; parameters: method as in PMID 22227214; settings: cited from earlier work

Compound | inhibition at 10 µM ([1]; at 10 µM) [%] | IC50 MCF 12A [2] | IC50 HepG2 [3] | IC50 [4] [µM] | IC50 [5] [µM] | melting point [°C] | IC50 [6] [µM] | IC50 [3] [µM] | IC50 [2] [µM] | %i ([1]; EGFR-TK percent inhibition as repeated in docking Table 5) [%] | Percent of Inhibition, EGFR tyrosine kinase ([1]; at 10 µM) [%] | IC50 [7] [µM] | IC50 [8] [µM] | IC50 [9] [µM] | IC50 [10] [µM] | IC50 [11] [µM]
CCOC(=O)C1=C(C)N(c2nc(Nc3ccccc3)nc(Nc3ccccc3)n2)C(=S)NC1c1ccccc1 (stereo not shown) [7a, Ethyl 1-(4,6-bis(phenylamino)-1,3,5-triazin-2-yl)-6-methyl-4-phenyl-2-thioxo-1,2,3,4-tetrahydropyrimidine-5-carboxylate] | 52.4 | non-toxic | inactive | 87.4 ± 0.76 | 96.6 ± 0.45 | 225 to 227 | 83.7 ± 0.27 | – | – | – | – | – | – | – | – | –
CCOC(=O)C1=C(C)N(c2nc(Nc3ccc([N+](=O)[O-])cc3)nc(Nc3ccc([N+](=O)[O-])cc3)n2)C(=S)NC1c1ccc(C)cc1 (stereo not shown) [7b, Ethyl 1-(4,6-bis((4-nitrophenyl)amino)-1,3,5-triazin-2-yl)-6-methyl-2-thioxo-4-(p-tolyl)-1,2,3,4-tetrahydropyrimidine-5-carboxylate] | 56.7 | non-toxic | – | 76.5 ± 0.54 | 81.8 ± 0.34 | 183 to 185 | 77.3 ± 0.41 | 79.3 ± 0.75 | – | – | – | – | – | – | – | –
CCOC(=O)C1=C(C)N(c2nc(Nc3ccccc3Cl)nc(Nc3ccccc3Cl)n2)C(=S)NC1c1ccc(OC)cc1 (stereo not shown) [7f, Ethyl 1-(4,6-bis((2-chlorophenyl)amino)-1,3,5-triazin-2-yl)-4-(4-methoxyphenyl)-6-methyl-2-thioxo-1,2,3,4-tetrahydropyrimidine-5-carboxylate] | 81.4 | – | – | 64 ± 0.38 | 55.4 ± 0.12 | 91 to 93 | 47 ± 0.54 | 46.5 ± 0.36 | 82.14 ± 0.21 | – | – | – | – | – | – | –
CCOC(=O)C1=C(C)N(c2nc(Nc3ccc([N+](=O)[O-])cc3)nc(Nc3ccc([N+](=O)[O-])cc3)n2)C(=S)NC1c1ccc(Cl)cc1 (stereo not shown) [7h, Ethyl 1-(4,6-bis((4-nitrophenyl)amino)-1,3,5-triazin-2-yl)-4-(4-chlorophenyl)-6-methyl-2-thioxo-1,2,3,4-tetrahydropyrimidine-5-carboxylate] | ~69 | non-toxic | – | 71.5 ± 0.46 | 73.4 ± 0.65 | 146 to 147 | 61.4 ± 0.36 | 69.6 ± 0.38 | – | 69.1 | 69.1 | – | – | – | – | –
CC(C)Nc1nc(N/N=C/c2cc(Br)c(O)c(Br)c2O)nc(Nc2ccc(F)cc2)n1 [1a] | – | – | – | – | – | – | – | – | – | – | – | 10.5 ± 0.9 | 7.7 ± 1.3 | 8 ± 1.6 | 6.5 | 25.9
CCOC(=O)C1=C(C)N(c2nc(Nc3ccccc3[N+](=O)[O-])nc(Nc3ccccc3[N+](=O)[O-])n2)C(=S)NC1c1ccc(C)cc1 (stereo not shown) [7c, Ethyl 1-(4,6-bis((2-nitrophenyl)amino)-1,3,5-triazin-2-yl)-6-methyl-2-thioxo-4-(p-tolyl)-1,2,3,4-tetrahydropyrimidine-5-carboxylate] | 53.6 | non-toxic | – | 72.2 ± 0.61 | 83.5 ± 0.22 | 232 to 234 | 70.5 ± 0.49 | 86.4 ± 0.67 | – | – | – | – | – | – | – | –
CNc1nc(N/N=C/c2ccc(O)cc2)nc(Nc2ccccc2)n1 [1f] | – | – | – | – | – | – | – | – | – | – | – | – | – | – | 30.7 | > 100
CCOC(=O)C1=C(C)N(c2nc(Nc3ccc(Cl)cc3)nc(Nc3ccc(Cl)cc3)n2)C(=S)NC1c1ccccc1Cl (stereo not shown) [7j, Ethyl 1-(4,6-bis((4-chlorophenyl)amino)-1,3,5-triazin-2-yl)-4-(2-chlorophenyl)-6-methyl-2-thioxo-1,2,3,4-tetrahydropyrimidine-5-carboxylate] | 82.4 | – | – | 57 ± 0.47 | 46.2 ± 0.56 | 112 to 114 | 39.6 ± 0.78 | 38.7 ± 0.32 | 69.13 ± 0.62 | – | – | – | – | – | – | –
CCOC(=O)C1=C(C)N(c2nc(Nc3cccc(Br)c3)nc(Nc3cccc(Br)c3)n2)C(=S)NC1c1ccccc1O (stereo not shown) [7e, Ethyl 1-(4,6-bis((3-bromophenyl)amino)-1,3,5-triazin-2-yl)-4-(2-hydroxyphenyl)-6-methyl-2-thioxo-1,2,3,4-tetrahydropyrimidine-5-carboxylate] | 78.5 | – | – | 67.8 ± 0.61 | 63.9 ± 0.25 | 245 to 247 | 57.4 ± 0.52 | 65.6 ± 0.45 | 89.45 ± 0.45 | – | – | – | – | – | – | –
